{
  "source": "paper PMC11123841",
  "about": "“Discovery and Synthesis of Hydroxy-L-Proline Blockers of the Neutral Amino Acid Transporters SLC1A4 (ASCT1) and SLC1A5 (ASCT2)” (Molecules, 2024)",
  "assay_type_in_all_cases": "cell-based",
  "key": {"SLC1A5": {"biological_target": "T1, SLC1A5 (Mus musculus, UniProt P51912)", "T1 construct": "expressed in transfected cells; host or cells: Xenopus laevis oocytes (cRNA injection)", "T1 sequence (P51912 1-553)": "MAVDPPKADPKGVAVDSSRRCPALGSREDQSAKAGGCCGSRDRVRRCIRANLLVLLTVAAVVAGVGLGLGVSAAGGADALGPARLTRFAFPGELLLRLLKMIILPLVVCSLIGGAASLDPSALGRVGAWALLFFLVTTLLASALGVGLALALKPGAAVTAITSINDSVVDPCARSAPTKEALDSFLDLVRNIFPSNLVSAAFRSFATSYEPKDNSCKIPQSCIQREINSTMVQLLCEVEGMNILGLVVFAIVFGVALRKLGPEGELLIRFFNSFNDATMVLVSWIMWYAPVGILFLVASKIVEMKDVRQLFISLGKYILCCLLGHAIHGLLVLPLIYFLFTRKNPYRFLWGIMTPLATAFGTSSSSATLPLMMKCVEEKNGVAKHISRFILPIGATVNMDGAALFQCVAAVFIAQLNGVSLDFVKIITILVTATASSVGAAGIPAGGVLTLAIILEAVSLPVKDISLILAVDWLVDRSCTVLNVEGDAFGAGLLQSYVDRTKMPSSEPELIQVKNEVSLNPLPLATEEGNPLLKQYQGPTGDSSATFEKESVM", "experiment": "[3H]L-alanine heteroexchange (trans-stimulation) in preloaded oocytes", "settings": "3 µM BPOHP, 1 mM L-alanine", "procedure": "(§1) Uptake was halted by washing 3 times with 4 °C ND96 buffer. Oocytes were then lysed in 0.1% Triton X-100, and radioactivity was counted via liquid scintillation. Dose response curves were generated by fitting fractional inhibition (I) to the expression I = Imax × [inhibitor]/([inhibitor] + IC50)."}, "SLC1A4 [1]": {"biological_target": "T2, SLC1A4 (Homo sapiens, UniProt P43007)", "T2 construct": "expressed in transfected cells; host or cells: Xenopus laevis oocytes (cRNA injection)", "T2 sequence (P43007 1-532)": "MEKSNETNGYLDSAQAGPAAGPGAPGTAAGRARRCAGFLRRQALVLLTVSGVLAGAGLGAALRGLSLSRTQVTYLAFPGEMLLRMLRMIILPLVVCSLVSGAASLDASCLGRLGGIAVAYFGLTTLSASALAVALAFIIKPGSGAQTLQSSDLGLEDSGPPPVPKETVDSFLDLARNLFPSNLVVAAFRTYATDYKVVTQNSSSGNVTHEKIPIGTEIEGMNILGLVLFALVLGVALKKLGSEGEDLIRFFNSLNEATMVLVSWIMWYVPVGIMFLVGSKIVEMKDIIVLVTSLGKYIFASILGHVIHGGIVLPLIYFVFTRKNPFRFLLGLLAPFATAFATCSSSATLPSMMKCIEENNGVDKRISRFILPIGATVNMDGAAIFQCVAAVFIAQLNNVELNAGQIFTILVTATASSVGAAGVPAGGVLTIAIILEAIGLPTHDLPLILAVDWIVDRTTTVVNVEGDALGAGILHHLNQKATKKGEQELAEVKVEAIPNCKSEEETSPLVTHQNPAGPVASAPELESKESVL", "experiment": "[3H]L-alanine heteroexchange (trans-stimulation) in preloaded oocytes", "settings": "3 µM BPOHP, 1 mM L-alanine", "procedure": "as §1"}, "mSLC1A5": {"biological_target": "T3, mSLC1A5 (Mus musculus, UniProt P51912)", "T3 construct": "expressed in transfected cells; host or cells: Xenopus laevis oocytes (cRNA injection)", "T3 sequence (P51912 1-553)": "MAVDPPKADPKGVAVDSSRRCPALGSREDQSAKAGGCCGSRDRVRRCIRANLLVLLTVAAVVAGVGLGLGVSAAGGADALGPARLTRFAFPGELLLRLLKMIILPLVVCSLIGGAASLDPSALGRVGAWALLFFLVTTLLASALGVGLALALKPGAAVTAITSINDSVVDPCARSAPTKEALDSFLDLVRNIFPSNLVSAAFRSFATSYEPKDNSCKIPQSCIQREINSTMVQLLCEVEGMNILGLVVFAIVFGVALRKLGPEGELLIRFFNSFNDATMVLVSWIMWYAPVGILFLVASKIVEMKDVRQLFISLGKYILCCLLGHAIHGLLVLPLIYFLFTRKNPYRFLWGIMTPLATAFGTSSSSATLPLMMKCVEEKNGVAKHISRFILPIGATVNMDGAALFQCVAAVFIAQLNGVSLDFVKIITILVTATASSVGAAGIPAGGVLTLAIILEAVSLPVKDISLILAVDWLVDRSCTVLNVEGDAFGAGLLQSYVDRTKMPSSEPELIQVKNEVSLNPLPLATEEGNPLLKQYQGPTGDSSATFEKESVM", "experiment": "TEVC block of anion leak conductance in oocytes", "text": "(§2) The currents induced by substrates and blocked by hydroxyproline analogs shared a reversal potential shown in the current/voltage relationship consistent with the conductance originating from the same ion pore (Figure 3, inset). […] The observed dose–response relationships are independent of competing substrates, and thus provide a direct measure of the equilibrium inhibition constant (Ki). Each synthetic hydroxyproline analog was functionally assessed for its capacity to inhibit SLC1A4 and SLC1A5 leak currents with affinities reported in Table 1 as determined or approximated Ki.\n(§3) Two-electrode voltage clamp (TEVC) transporter currents were recorded with a GeneClamp 500 amplifier and Digidata 1320A analog–digital interface (Molecular Devices, San Jose, CA, USA). Electrodes (0.2–1.0 MΩ) were filled with 3M KCl and the recording chamber was grounded with an agar bridge. Data were acquired with Axograph (v1.7.6) and LabChart (v7) and analyzed with Kaleidagraph software (v4.1) (Synergy, Reading, PA, USA). Uncoupled anion currents associated with the transport of substrate and block of SLC1A4 or SLC1A5 mediated leak conductance were recorded in the presence of Ringer with 50% substitution of NaCl by NaSCN to amplify the non-transported anion conductance.\n(§4) Figure 3 AHPCs block a leak current in SLC1A4 and SLC1A5. […] Inset (A): The current and voltage relationship for SLC1A4 currents activated by Ala or blocked by 14b are determined by subtracting voltage jumps in buffer."}, "SLC1A4 [2]": {"biological_target": "T2, SLC1A4", "experiment": "TEVC block of anion leak conductance in oocytes", "text": "as §2, §3, §4"}, "SLC1A4 (hASCT1)": {"biological_target": "T4, SLC1A4 (hASCT1) (Homo sapiens, UniProt P43007)", "T4 construct": "expressed in transfected cells; host or cells: Xenopus laevis oocytes (cRNA injection)", "T4 sequence (P43007 1-532)": "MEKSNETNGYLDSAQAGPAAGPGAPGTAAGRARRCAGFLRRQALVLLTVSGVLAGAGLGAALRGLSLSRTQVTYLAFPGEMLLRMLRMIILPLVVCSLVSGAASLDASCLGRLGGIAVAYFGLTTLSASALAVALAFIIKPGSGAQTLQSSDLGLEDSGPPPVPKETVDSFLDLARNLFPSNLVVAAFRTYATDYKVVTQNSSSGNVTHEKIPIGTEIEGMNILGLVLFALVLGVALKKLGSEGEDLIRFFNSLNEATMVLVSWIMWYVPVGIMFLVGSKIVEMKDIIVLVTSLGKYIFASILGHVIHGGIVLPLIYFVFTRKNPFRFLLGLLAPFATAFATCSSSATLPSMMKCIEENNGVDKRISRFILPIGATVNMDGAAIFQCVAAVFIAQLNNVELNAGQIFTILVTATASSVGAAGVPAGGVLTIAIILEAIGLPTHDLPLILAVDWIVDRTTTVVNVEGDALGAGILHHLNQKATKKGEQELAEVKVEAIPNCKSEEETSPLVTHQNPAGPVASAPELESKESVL", "experiment": "TEVC substrate-induced SCN- anion currents in Xenopus oocytes", "procedure": "(§5) Additionally, 4-HP applied at 1 mM was used to assess activity at the glutamate transporters SLC1A3 or SLC1A1.\nas §1, §3\n(§6) (A) SLC1A4 dose response curves for substrate activated anion currents using two-electrode voltage clamp of Xenopus lavies oocytes (−30 mV). […] (B) SLC1A5 dose response curve for substrate activated anion currents using two-electrode voltage clamp (−30 mV). […] Extracellular solutions contained 50 mM NaSCN."}, "SLC1A5 (mASCT2)": {"biological_target": "T5, SLC1A5 (mASCT2) (Mus musculus, UniProt P51912)", "T5 construct": "expressed in transfected cells; host or cells: Xenopus laevis oocytes (cRNA injection)", "T5 sequence (P51912 1-553)": "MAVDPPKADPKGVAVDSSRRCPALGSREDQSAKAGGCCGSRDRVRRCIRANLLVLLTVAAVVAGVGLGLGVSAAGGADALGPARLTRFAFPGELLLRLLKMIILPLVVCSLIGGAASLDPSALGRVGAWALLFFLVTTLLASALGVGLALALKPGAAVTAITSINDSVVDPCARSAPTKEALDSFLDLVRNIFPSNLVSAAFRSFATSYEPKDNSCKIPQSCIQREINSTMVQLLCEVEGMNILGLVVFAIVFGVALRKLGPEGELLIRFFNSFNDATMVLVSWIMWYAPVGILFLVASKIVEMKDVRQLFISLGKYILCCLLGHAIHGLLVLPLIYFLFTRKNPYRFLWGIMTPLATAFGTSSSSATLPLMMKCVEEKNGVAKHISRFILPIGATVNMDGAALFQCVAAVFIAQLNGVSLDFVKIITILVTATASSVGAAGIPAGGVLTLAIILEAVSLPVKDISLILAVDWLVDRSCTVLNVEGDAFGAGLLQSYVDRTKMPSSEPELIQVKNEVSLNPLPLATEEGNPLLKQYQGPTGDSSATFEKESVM", "experiment": "TEVC substrate-induced SCN- anion currents in Xenopus oocytes", "procedure": "as §5, §1, §3, §6"}},
  "data": [
    {"compound": "C[C@H](N)C(=O)O", "note": "[L-Ala, L-alanine, reference compound]", "values": [
      {"measurement": "[3H]L-alanine exchange", "setting": "SLC1A5", "result": "induces exchange"},
      {"measurement": "[3H]L-alanine exchange", "setting": "SLC1A4 [1]", "result": "induces exchange"}
    ]},
    {"compound": "O=C(O)C1NCC(O)C1c1ccccc1", "note": "[10d, cis-3-phenyl-4-trans-hydroxy-L-proline]", "values": [
      {"measurement": "Ki", "setting": "mSLC1A5; mSLC1A5, from dose–response of blocked anion conductance, compounds tested only once without standard error, read-out: SLC1A5 Ki", "result": "1130 ± 318", "unit": "µM"},
      {"measurement": "Ki", "setting": "SLC1A4 [2]; from dose–response of blocked anion conductance, compounds tested only once without standard error, read-out: SLC1A4 Ki", "result": "332 ± 74", "unit": "µM"}
    ]},
    {"compound": "C[C@@]1(O)CN[C@H](C(=O)O)C1", "note": "[compound 27, cis-4-hydroxy-trans-4-methyl-L-proline]", "values": [
      {"measurement": "SLC1A4 Ki (µM)", "setting": "SLC1A4 [2]; from dose–response of blocked anion conductance, compounds tested only once without standard error", "result": "No Block"}
    ]},
    {"compound": "CC(C)O[C@@H]1CN[C@H](C(=O)O)[C@H]1O", "note": "[14b, trans-3-hydroxy-cis-4-isopropoxy-L-proline]", "values": [
      {"measurement": "block of anion leak conductance / inhibition", "setting": "mSLC1A5; SLC1A5", "result": "block the anion conductance"},
      {"measurement": "block of anion leak conductance / inhibition", "setting": "SLC1A4 [2]; SLC1A4", "result": "block the anion conductance"}
    ]},
    {"compound": "O=C(O)[C@@H]1C[C@H](O)CN1", "note": "[compound 1, cis-4-hydroxy-L-proline, reference compound]", "values": [
      {"measurement": "substrate currents", "setting": "SLC1A4 (hASCT1)", "result": "did not induce detectable substrate currents"},
      {"measurement": "substrate currents", "setting": "SLC1A5 (mASCT2)", "result": "did not induce detectable substrate currents"},
      {"measurement": "concentration at which leak anion current is blocked", "setting": "mSLC1A5; SLC1A5 (transporter not given)", "result": "above 500 µM"},
      {"measurement": "concentration at which leak anion current is blocked", "setting": "SLC1A4 [2]; SLC1A4 (transporter not given)", "result": "above 500 µM"}
    ]}
  ]
}
